From paper PMC10005185, “Structure-guided engineering of a receptor-agonist pair for inducible activation of the ABA adaptive response to drought” (Science Advances, 2023) come the findings set out here.

The structures appear in SMILES notation.

Assay [1] has as its target AtHAB1ΔN with CsPYL1^5m (Citrus sinensis, UniProt A0A067E666, F137I/T135L/T153I/V112L/V168A). In words: PP2C inhibition assay, HAB1 with CsPYL1^5m. The assay is classed as biochemical, Citrus sinensis (CsPYL1^5m); Arabidopsis thaliana (HAB1). The settings on record: IC50 for inhibition of HAB1 (ΔNHAB1) in the presence of CsPYL1^5m, pNPP as substrate. As to the method: (§1) His-tagged receptors and phosphatases were purified using nickel–nitrilotriacetic acid (Ni-NTA) affinity chromatography. Protein integrity was analyzed by SDS–polyacrylamide gel electrophoresis, followed by InstantBlue staining. Phosphatase activity was measured using p-Nitrophenyl Phosphate (pNPP) (25 mM) as substrate, 10 mM MnCl2,1 μM PP2C, and 2 μM of the indicated receptors. […] Assays were repeated twice. For dose-response experiments, IC50 values were obtained with GraphPad Prism 9 using a nonlinear regression curve fit. Each ligand concentration was tested in triplicate. Phosphatase activity of ABI1 was measured using RRA(phosphoT)VA peptide as a substrate, as described ([27]).

For assay [2], the system named is Arabidopsis thaliana plants (WT Col-0, CsPYL1^5m lines). In words: Whole-plant gas exchange, stomatal conductance (Gs). The assay is classed as in vivo. As for the experimental part:
A. thaliana seeds were planted in specific gas exchange pots, where above- and below-ground parts can be separated by glass into 2:1 (v:v) peat:vermiculite mixture. The plants were grown in growth chambers (Snijders Scientific, Drogenbos, Belgium) at 12/12 photoperiod, 23/18°C temperature, 160 μmol m^−2 s^−1 light, and 70% relative humidity and were 23 to 28 days old during gas exchange experiments. Whole-rosette stomatal conductances were recorded with an eight-chamber custom-built temperature-controlled gas exchange device as described before ([72]). Plants were inserted into the measurement cuvettes and allowed to stabilize at standard conditions: ambient CO2, ~420 ppm; air temperature, 24° ± 0.5°C; light, 160 μmol m^−2 s^−1; relative air humidity, 66 ± 3%. For sprayings, plants were removed from gas exchange cuvettes, sprayed with respective solutions, and put back into the cuvettes for stomatal conductance recordings for 56 min. To check the long-term effect of compounds on plants, stomatal conductance measurements were performed about 24 and 48 hours after sprayings. In the meantime, plants were kept in growth chambers as described above. Photographs of plants were taken after the experiment, and leaf rosette area was calculated using ImageJ 1.37v [National Institutes of Health (NIH), USA]. Stomatal conductance for water vapor was calculated with a custom-written program as described ([72]).

Assay [3] concerns ABI1 with CsPYL1^5m. The assay is classed as biochemical, Citrus sinensis (CsPYL1^5m); Arabidopsis thaliana (ABI1). As to the method: as §1
In assay [4] the target is T1, ΔNHAB1 with AtPYL1 (Arabidopsis thaliana, UniProt Q8VZS8).
T1 construct: His; made in house
T1 sequence (Q8VZS8 whole entry, stated change not applied): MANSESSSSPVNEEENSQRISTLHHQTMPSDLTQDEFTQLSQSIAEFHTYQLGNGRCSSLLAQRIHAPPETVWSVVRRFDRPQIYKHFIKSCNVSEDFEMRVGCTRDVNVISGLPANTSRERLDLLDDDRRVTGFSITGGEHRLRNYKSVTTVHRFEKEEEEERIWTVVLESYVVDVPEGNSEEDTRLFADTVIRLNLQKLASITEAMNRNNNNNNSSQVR
In words: PP2C inhibition assay, HAB1 with AtPYL1. The assay is classed as biochemical. Particulars: read-out: inhibition of HAB1. As for the experimental part: (§2) His-tagged receptors and phosphatases were purified using nickel–nitrilotriacetic acid (Ni-NTA) affinity chromatography. Protein integrity was analyzed by SDS–polyacrylamide gel electrophoresis, followed by InstantBlue staining. Phosphatase activity was measured using p-Nitrophenyl Phosphate (pNPP) (25 mM) as substrate, 10 mM MnCl2,1 μM PP2C, and 2 μM of the indicated receptors. Proteins were incubated with the ligands for 10 min at room temperature. pNPP was then added to start the reactions, and the absorbance at 405 nm was monitored for 20 min in a ViktorX5 plate reader. Assays were repeated twice. For dose-response experiments, IC50 values were obtained with GraphPad Prism 9 using a nonlinear regression curve fit. Each ligand concentration was tested in triplicate. Phosphatase activity of ABI1 was measured using RRA(phosphoT)VA peptide as a substrate, as described ([27]).

The subject of assay [5] is ABA-responsive markers. In words: RNA sequencing of ABA-responsive markers. The assay is classed as in vivo, Arabidopsis thaliana. The settings on record: 5 μM iSB09, 3 hours. As to the method: Total RNA was extracted as indicated above. The quality of the samples was verified using Agilent 2100 Bioanalyzer. First-strand cDNA was prepared by an EasyScript One-Step gDNA Removal and cDNA Synthesis SuperMix (TransGen Biotech) with random hexamers. Sequencing of cDNA libraries was performed using the DNB-Seq technology at the Beijing Genomics Institute, producing at least 20 million clean reads per sample of paired-end 100-base pair read lengths. RNA-seq data analysis was carried out by the Bioinformatics core facility at Instituto de Biología Molecular y Celular de […]. After quality analysis of raw reads with FastQC (www.bioinformatics.babraham.ac.uk/projects/fastqc/), and quality trimming and adapter removal of raw reads with cutadapt (http://journal.embnet.org/index.php/embnetjournal/article/view/200), clean read pairs longer than 20 nucleotides were mapped to TAIR10 arabidopsis Col-0 reference genome using HISAT2 with default parameters, and nonuniquely mapped pairs were discarded with SAMtools. The number of read counts that uniquely mapped to each arabidopsis gene (Araport11 annotation) was obtained with HTSeq-count. Genes lacking at least 1 TPM ([…]) in the three replicates of at least one of the two conditions were filtered out, and differential expression analysis of the remaining genes was done with DESeq2. […]

Assay [6] addresses T2, HAB1 with PYR1 (Arabidopsis thaliana, UniProt O49686).
T2 construct: His; made in house
In words: PP2C inhibition assay, HAB1 with PYR1. The assay is classed as biochemical. Particulars: 1 μM iSB09, PYR1. As to the method:
as §2

For assay [7], the target named is T3, HAB1 with AtPYL4 (Arabidopsis thaliana, UniProt O80920).
T3 construct: His; made in house
T3 sequence (Q9CAJ0 179-511): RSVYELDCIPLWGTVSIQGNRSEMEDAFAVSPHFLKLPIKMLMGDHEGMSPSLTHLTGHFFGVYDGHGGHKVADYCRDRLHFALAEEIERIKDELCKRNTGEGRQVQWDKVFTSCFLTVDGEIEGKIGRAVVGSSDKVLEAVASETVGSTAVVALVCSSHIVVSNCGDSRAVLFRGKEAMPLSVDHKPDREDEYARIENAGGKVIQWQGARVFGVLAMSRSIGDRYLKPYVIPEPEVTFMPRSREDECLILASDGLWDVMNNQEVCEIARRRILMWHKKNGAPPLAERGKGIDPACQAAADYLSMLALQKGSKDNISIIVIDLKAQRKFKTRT
T3 sequence (O80920 whole entry): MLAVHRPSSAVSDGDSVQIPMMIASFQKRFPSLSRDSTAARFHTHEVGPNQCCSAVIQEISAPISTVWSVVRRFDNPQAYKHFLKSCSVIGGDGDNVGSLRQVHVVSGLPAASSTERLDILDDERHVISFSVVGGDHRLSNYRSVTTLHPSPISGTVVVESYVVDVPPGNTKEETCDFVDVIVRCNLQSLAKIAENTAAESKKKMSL
In words: PP2C inhibition assay, HAB1 with AtPYL4. The assay is classed as biochemical. Particulars: 1 µM phosphatase:2 µM receptor. As to the method: as §2
Fig. S6. QB lacks bioactivity in tomato whereas iSB09 is
(A) Quantification of the leaf temperature difference at 2 and 5 days after spraying tomato plants with 0.1 % DMSO
(mock- treated control), 10 µM iSB09 or 10 µM QB.
Asterisk indicates p<0.001 (Student’s t test). Values show individual points and average ± SD (n=4 replicates for mock and chemical treatments). (B) IR-images of representative tomato plants at 2 days after being treated with 0.1 % DMSO […]

Assay [8] has as its target T4, ΔNHAB1 with AtPYL5 (Arabidopsis thaliana, UniProt Q9FLB1).
T4 construct: His; made in house
In words: PP2C inhibition assay, HAB1 with AtPYL5. The assay is classed as biochemical. The settings on record: read-out: inhibition of HAB1. As to the method: as §2

The target in assay [9] is T5, HAB1 with PYL2 (Arabidopsis thaliana, UniProt O80992).
T5 construct: His; made in house
T5 sequence (O80992 whole entry): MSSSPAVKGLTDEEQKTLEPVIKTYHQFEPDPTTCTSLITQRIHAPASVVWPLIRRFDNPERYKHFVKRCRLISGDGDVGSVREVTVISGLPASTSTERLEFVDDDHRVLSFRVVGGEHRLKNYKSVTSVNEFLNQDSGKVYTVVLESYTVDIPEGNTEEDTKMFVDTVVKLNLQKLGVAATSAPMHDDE
T5 sequence (Q9CAJ0 179-511 partner limits assumed): as the sequence (Q9CAJ0 179-511) above
In words: PP2C inhibition assay, HAB1 with PYL2. The assay is classed as biochemical. The settings on record: 1 μM iSB09, PYL2. As for the experimental part: as §2

AtHAB1ΔN with CsPYL1^5m, sequence (A0A067E666 1-209 V112L/T135L/F137I/T153I/V168A): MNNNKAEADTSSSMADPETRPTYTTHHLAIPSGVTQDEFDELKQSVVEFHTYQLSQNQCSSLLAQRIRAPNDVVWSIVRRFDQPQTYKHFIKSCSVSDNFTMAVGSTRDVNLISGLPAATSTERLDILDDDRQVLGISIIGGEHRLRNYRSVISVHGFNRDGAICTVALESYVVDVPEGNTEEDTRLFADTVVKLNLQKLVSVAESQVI
AtHAB1ΔN with CsPYL1^5m, sequence (Q9CAJ0 179-511 partner): as the sequence (Q9CAJ0 179-511) above
T2 sequence (O49686 whole entry): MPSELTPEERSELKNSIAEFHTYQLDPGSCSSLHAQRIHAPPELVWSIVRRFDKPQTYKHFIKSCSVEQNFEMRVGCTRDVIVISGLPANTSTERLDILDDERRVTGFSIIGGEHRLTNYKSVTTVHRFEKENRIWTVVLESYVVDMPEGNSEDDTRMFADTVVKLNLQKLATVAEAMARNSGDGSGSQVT
T2 sequence (Q9CAJ0 179-511 partner limits assumed): as the sequence (Q9CAJ0 179-511) above
T4 sequence (Q9FLB1 whole entry, stated change not applied): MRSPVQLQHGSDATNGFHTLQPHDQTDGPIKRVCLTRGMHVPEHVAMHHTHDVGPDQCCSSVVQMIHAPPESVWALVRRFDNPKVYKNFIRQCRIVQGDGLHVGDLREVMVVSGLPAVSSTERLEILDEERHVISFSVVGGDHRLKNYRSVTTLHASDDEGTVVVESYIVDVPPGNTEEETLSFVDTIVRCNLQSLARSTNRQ

As to `CCn1c(=O)cc(C)c2cc(CNS(=O)(=O)c3ccccc3)ccc21` [iSB09], the half-maximal inhibitory concentration (IC50) in assay [1] was found to be 316 nM; in [7], 330 nM. Besides, the “effect on stomatal conductance (Gs)” value in assay [2] (WT, spraying with 5 μM) was “nonsignificant”. For the same compound, the “reduction of stomatal conductance (Gs)” value in assay [2] (WT, spraying with 20 μM) is “effective”. Moreover, the “duration of the effect on Gs” value in assay [2] (transgenic lines, 5 μM) is no less than 48 h. In addition, the “reduction of Gs 24 and 48 hours after spraying” value in [2] (transgenic lines, 5 μM) is listed as “significantly evident”. Also, the “sensitivity of ABI1 relative to HAB1 to iSB09-mediated CsPYL1^5m-dependent inhibition” value in assay [3] is given as “fivefold more sensitive”. The inhibition at 1 µM in assay [4], in assay [6], in assay [8] and in [9] was 60 to 70% throughout. The “increase of regulation of ABA-responsive markers in CsPYL1^5m background relative to WT” value in [5] is given as 8- to 10 fold.
